Consider eight molecules from patent US8399682B2, “Substituted (pyrazolylcarbonyl)imidazolidinones and their use” (AiCuris GmbH & Co. KG, priority 2008, dated 2013).

In test [1] the test system is HIV-1NL4-3 wt. As to the kind of experiment: Light assay with wild-type HI reporter virus in MT4 7F2 cells. In kind it is cell-based. Conditions: Human immunodeficiency virus 1, 2% FCS. How it is done:
(§1) For the mixture for a 96-well MTP, 3 million MT4 7F2 cells are pelleted, suspended in 1 ml of RPMI 1640 medium without phenol red (Invitrogen, Karlsruhe, Germany)/10% FCS/10% AIM-V (Invitrogen, Karlsruhe, Germany) and incubated together with a suitable amount of the corresponding HIV-1NL4-3 reporter virus at 37° C. for 2 hours (pellet infection). Unadsorbed viruses are subsequently washed out with PBS, and the infected cells are pelleted again and suspended in 8 ml of RPMI 1640 medium without phenol red/2% or 10% FCS/10% AIM-V. 80 μl thereof are pipetted into each well of a white 96-well MTP with 20 μl of test substance in suitable dilution. To avoid edge effects, the wells on the edge of the MTP are not used for substance dilutions. The second vertical row of the MTP contains only infected cells (virus control) and the eleventh vertical row only uninfected cells (cell control), in each case in RPMI 1640 medium without phenol red/2% or 10% FCS/10% AIM-V. The other wells of the MTP contain the compounds of the invention in various concentrations starting from the third vertical row, from which the test substances are diluted in 3-fold steps up to the tenth vertical row 3^7-fold. The test substances are dissolved in DMSO, whereby the final DMSO concentration in the test mixture eventually is 1%. The test mixtures are incubated at 37° C./5% CO2 for five days and, after the addition of 15 μl of Lu164 substrate (5 mg/ml coelenterazine dissolved in 30 μM glutathione/DMSO, 100 mM NaCl, 1M MES, 100 mM glutathione), evaluated by luminometry. The resulting values are in the region of 1 000 000 RLUs (relative light units) for the virus control and 300 to 400 RLUs for the cell control. The EC50 values of the test substances are determined as the concentration at which the virus replication measured in RLUs is 50% of the untreated infected cells.

Test [2] relates to HIV-1NL4-3 K103N-Y181C. As to the kind of experiment: Light assay with inhibitor-resistant HI reporter virus in MT4 7F2 cells. In kind it is cell-based. Conditions: Human immunodeficiency virus 1, read-out: EC50 (nM) MT4 7F2 cells HIV-1NL4-3 K103N-Y181C 2% FCS. How it is done:
as §1

Test [3] concerns the target T1, reverse transcriptase (Human immunodeficiency virus type 1 group M subtype B, UniProt P04585).
T1 construct: negative control (mixture without reverse transcriptase); purchased Roche Diagnostics GmbH, Mannheim, Germany
As to the kind of experiment: Biochemical Reverse Transcriptase Assay (Reverse Transcriptase Assay, colorimetric, Roche). Conditions: read-out: IC50 (nM) RT Assay. On the procedure: The “Reverse Transcriptase Assay, colorimetric” (Roche Diagnostics GmbH, Mannheim, Germany) is used in accordance with the manufacturer's information. The test substances are dissolved in DMSO and are used in the test diluted in 5-fold steps (final DMSO concentration 1%). The resulting values of the photometric evaluation (405/492 nm) are less than 0.1 for the negative control (mixture without reverse transcriptase) and are in the region of 1.5 for the positive control (mixture without test substance). The IC50 values of the test substances are determined as the concentration of the test substance dilution at which the measured optical density is 50% of the positive control.

Test [4] deals with HIV-1LAI. The experiment in a line: H9 assay with wild-type HIV-1 (HIV-1LAI supernatant infection, AlamarBlue). Conditions: Human immunodeficiency virus 1, H9 cells, 10% FCS. It is filed as cell-based. On the procedure:
For the mixture for a 96-well MTP, 3 million PBLs are pelleted, suspended in 1 ml of RPMI 1640 medium/10% FCS and incubated together with a suitable amount of HIV-1LAI (NIH AIDS Research & Reference Reagent Program, Germantown, USA) at 37° C. for 2 hours (pellet infection). Unadsorbed viruses are subsequently washed out with PBS, and the infected cells are pelleted again and suspended in 18 ml of RPMI 1640 medium/10% FCS/interleukin-2 (40 U/ml). 180 μl thereof are pipetted into each well of a white 96-well MTP with 20 μl of test substance in suitable dilution. Alternatively, after preparation of the substance dilutions in the MTP, the HIV is pipetted in together with the cells and is not washed out again (supernatant infection). In order to avoid edge effects, the wells at the edge of the MTP are not used for substance dilutions. The second vertical row of the MTP contains only infected cells (virus control) and the eleventh vertical row only uninfected cells (cell control), in each case in RPMI 1640 medium/10% FCS/interleukin-2 (40 U/ml). The other wells of the MTP contain the compounds of the invention in various concentrations starting from the third vertical row, from which the test substances are diluted in 3-fold steps up to the tenth vertical row 3^7-fold. The test substances are dissolved in DMSO, whereby the final DMSO concentration in the test mixture eventually is 1%. The test mixtures are incubated at 37° C./5% CO2. After 5 and 7 days, 50 μl of cell-free supernatant are removed from each well to determine the amount of p24 present by means of a p24 ELISA (HIV-1 p24^CA Antigen Capture Assay Kit, NCI-Frederick Cancer Research and Development Center, Frederick, USA). From the resulting values of the photometric evaluation (450/620 nm) the EC50 values of the test substances are determined as the concentration at which the amount of p24 is 50% of the untreated infected cells.
Alternatively, H9 cells (ATCC, Wesel, Germany) are employed instead of PBLs for testing the test substances. H9 cells are incubated in RPMI 1640 medium with 2% or 10% FCS as a HIV-1LAI supernatant infection at 37° C./5% CO2, (20 μl of substance dilution and 80 μl of cells/virus per well) in accordance with the pattern described above for 5 days. Subsequently, 10 μl of AlamarBlue (Invitrogen, Karlsruhe, Germany) are added to each well, and the MTPs are incubated at 37° C. for 3 hours before the fluorimetric evaluation takes place (544/590 nm). The resulting values are about 40 000 for the untreated uninfected cells and about 7000 for the untreated infected cells. In the low concentration range, the EC50 values of the test substances are determined as the concentration at which the fluorescence is 50% of the untreated uninfected cells (in each case subtracting the values of the untreated infected cells). In addition, in the high concentration range, the CC50 values of the test substances are determined as the concentration at which the fluorescence is 50% of the untreated uninfected cells (in each case subtracting the values of the untreated infected cells).

The EC50 is the concentration giving half of the maximal effect. Usually IC50 stands for the midpoint of a concentration-inhibition curve. Take `N#Cc1cc(-n2nc(C(=O)N3CNC(=O)C3)cc2-c2cccc(Cl)c2)ccc1F` [Example 53, 1-{[5-(3-Chlorophenyl)-1-(3-Cyano-4-fluorophenyl)-1H-pyrazol-3-yl]carbonyl}imidazolidin-4-one]: the half-maximal effective concentration (EC50) in test [1] turned out to be 0.3 nM; in test [2], 33 nM; in test [4], 1 nM. Further, the IC50 in test [3] turned out to be 46 nM.
The corresponding values for `N#Cc1cccc(-n2nc(C(=O)N3CNC(=O)C3)cc2-c2cccc(Cl)c2)c1` [Example 56, 3-{5-(3-Chlorophenyl)-3-[(4-oxoimidazolidin-1-yl)carbonyl]-1H-pyrazol-1-yl}benzenecarbonitrile] are 0.03 nM, 12 nM, 0.1 nM and 14 nM.
Consider `N#Cc1cccc(-n2nc(C(=O)N3CNC(=O)C3)cc2-c2cc(F)cc(Cl)c2)c1` [Example 59], for which the values for the EC50 in test [1], in test [2] and in test [4] were 0.2 nM, 10 nM and 1 nM, respectively. Moreover, the IC50 in test [3] was 8 nM.
Regarding `N#Cc1cc(-n2nc(C(=O)N3CNC(=O)C3)cc2-c2cc(F)cc(Cl)c2)ccc1F` [Example 60, 5-{5-(3-Chloro-5-fluorophenyl)-3-[(4-oxoimidazolidin-1-yl)carbonyl]-1H-pyrazol-1-yl}-2-fluorobenzenecarbonitrile], the EC50 in test [1] was 0.1 nM; in test [2], 4 nM; in test [4], 0.9 nM. In addition, in test [3], the IC50 was determined as 9 nM.
Consider `N#Cc1cc(F)cc(-c2cc(C(=O)N3CNC(=O)C3)nn2-c2cccc(Cl)c2)c1` [Example 61, 3-{1-(3-Chlorophenyl)-3-[(4-oxoimidazolidin-1-yl)carbonyl]-1H-pyrazol-5-yl}-5-fluorobenzenecarbonitrile], for which the concentration giving a half-maximal response (EC50) in test [1] stood at 1 nM; in test [2], 80 nM; in test [4], 3 nM. The IC50 in test [3] was 35 nM.
With `N#Cc1cc(F)cc(-c2cc(C(=O)N3CNC(=O)C3)nn2-c2ccc(F)c(Cl)c2)c1` [Example 62, 3-{1-(3-Chloro-4-fluorophenyl)-3-[(4-oxoimidazolidin-1-yl)carbonyl]-1H-pyrazol-5-yl}-5-fluorobenzenecarbonitrile], the EC50 was determined as 2 nM in test [1], 63 nM in test [2] and 9 nM in test [4]. In addition, the IC50 in test [3] stood at 49 nM.
For `N#Cc1cc(F)cc(-c2cc(C(=O)N3CNC(=O)C3)nn2-c2ccc(F)c(C#N)c2)c1` [Example 63, 5-{5-(3-Cyano-5-fluorophenyl)-3-[(4-oxoimidazolidin-1-yl)carbonyl]-1H-pyrazol-1-yl}-2-fluorobenzenecarbonitrile] the same measures were 20 nM, 237 nM, 150 nM and 102 nM.
For the molecule `N#Cc1cc(F)cc(-c2cc(C(=O)N3CNC(=O)C3)nn2-c2cccc(C#N)c2)c1` [Example 64, 3-{1-(3-Cyanophenyl)-3-[(4-oxoimidazolidin-1-yl)carbonyl]-1H-pyrazol-5-yl}-5-fluorobenzenecarbonitrile], the EC50 in test [1] was 5 nM; in test [2], 250 nM; in test [4], 100 nM. Moreover, the half-inhibitory concentration (IC50) in test [3] is 25 nM.
